In this experiment the test system is TRPC4–C1. The experiment can be described thus: [Ca2+]i recordings (Fura-2), concatemeric TRPC4–C1 in HEK T-REx cells. The class given is cell-based. Conditions: activator EA (30 nM). As to the method:
Based on the findings described above, we wondered whether AC1903—which is typically used as a TRPC5 inhibitor at concentrations of 30–100 μM in cellular assays ([29], [56])—might have limited selectivity for TRPC5 channels and whether its effect on intracellular G418 levels and PTC readthrough might be the consequence of inhibition of other or multiple targets. All well-characterized TRPC channel inhibitors reported to date modulate multiple TRP(C) channels ([34], [35], [36]). […] Because limited data for the selectivity of AC1903 are available in the public domain, we decided to profile AC1903 against a selection of calcium-permeable cation channels by intracellular calcium ([Ca^2+]i) recordings using well-characterized cell lines and TRP channel activators ([46], [57], [58]), and the Ca^2+ indicator Fura-2. In these assays, cells (HEK 293, HEK T-REx, or CHO) overexpressing the relevant ion channel protein and loaded with Fura-2 AM (a cell-permeable precursor of Fura-2) were preincubated with various concentrations of AC1903 or vehicle (DMSO) for 30 min. Then, changes in ratiometric fluorescence (from background) were recorded upon addition of the respective ion channel activator.
HEK T-REx cells expressing tetracycline-inducible TRPC4, TRPC5, TRPC5–C1,TRPC4–C1, and hPiezo1 have been described previously ([46], [57], [59], [78]). […]

For the compound `c1ccc(Cn2c(NCc3ccco3)nc3ccccc32)cc1` [AC1903], the IC50 – broadly, the concentration needed to halve the response being measured – was determined as 3000 nM. That is a single-digit micromolar value.

The values are drawn from publication PMC8808171, “Nonselective TRPC channel inhibition and suppression of aminoglycoside-induced premature termination codon readthrough by the small molecule AC1903” (The Journal of Biological Chemistry, 2022).
